Results reported in PubChem BioAssay AID1963969 (Molecular Pharmacology Branch, DTP, NCI, 2024).
Several values for one entry are separate records, joined by “and”; a condition that tells them apart may be missing. Identical values can stand only once.

Test system: 817829-284-R-J1-PDC multi-cell spheroid viability
Assay: Anticancer human tumor 817829-284-R-J1-PDC patient-derived colon adenocarcinoma cell line growth inhibition [PI3K]
Details: for viability, T/C: stronger effect = lower value
How it was run: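 Viability of mixed-cell spheroids was determined after exposure to pairwise combinations, one partner being inavolisib, alpelisib, duvelisib or copanlisib. Highest tested concentration matched clinical Cmax where known and 10 microM where not, descending in half-log steps.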
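Note: spheroids exposed to agents for seven days before readout.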
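Throughout, for viability, T/C: percent of vehicle DMSO control viability which is 100%.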

With `CCN1CCN(Cc2ccc(Nc3ncc(F)c(-c4cc(F)c5nc(C)n(C(C)C)c5c4)n3)nc2)CC1` + COc1c(OCCCN2CCOCC2)ccc2c3n(c(=NC(=O)c4cnc(N)nc4)nc12)CCN3 as the compound, how does the IC50 (curve of first compound, second compound 0.00316 µM) read?
Its IC50 is > 1000 nM.

And the IC50 (curve of first compound, second compound 0.01 µM)?
The IC50 was > 1000 nM.

What about the IC50 (curve of first compound, second compound 0.0316 µM) of the same compound?
The IC50 was 57.5 nM.

And the IC50 (curve of first compound, second compound 0.1 µM)?
Its IC50 is < 3.16 nM.

What about the IC50 (curve of first compound, second compound 0.316 µM) of the same compound?
The IC50 was < 3.16 nM.

What about the IC50 (curve of first compound, second compound 1 µM) of the same compound?
Its IC50 is < 3.16 nM.

What about the viability, T/C (second compound 0.00316 µM, first compound 0.00316 µM) of the same compound?
Its viability, T/C is 113%.

And the viability, T/C (second compound 0.00316 µM, first compound 0.01 µM)?
Its viability, T/C is 83.4%.

What about the viability, T/C (second compound 0.00316 µM, first compound 0.0316 µM) of the same compound?
The viability, T/C was 72.7%.

And the viability, T/C (second compound 0.00316 µM, first compound 0.1 µM)?
Its viability, T/C is 50.2%.

And the viability, T/C (second compound 0.00316 µM, first compound 0.316 µM)?
Its viability, T/C is 50.7%.

And the viability, T/C (second compound 0.00316 µM, first compound 1 µM)?
The viability, T/C was 53.8%.

What about the viability, T/C (second compound 0.01 µM, first compound 0.00316 µM) of the same compound?
Its viability, T/C is 75.4%.

What about the viability, T/C (second compound 0.01 µM, first compound 0.01 µM) of the same compound?
The viability, T/C was 60.3%.

And the viability, T/C (second compound 0.01 µM, first compound 0.0316 µM)?
The viability, T/C was 58.7%.

And the viability, T/C (second compound 0.01 µM, first compound 0.1 µM)?
The viability, T/C was 58%.

And the viability, T/C (second compound 0.01 µM, first compound 0.316 µM)?
Its viability, T/C is 47.8%.

What about the viability, T/C (second compound 0.01 µM, first compound 1 µM) of the same compound?
Its viability, T/C is 50.4%.

And the viability, T/C (second compound 0.0316 µM, first compound 0.00316 µM)?
The viability, T/C was 56%.

And the viability, T/C (second compound 0.0316 µM, first compound 0.01 µM)?
Its viability, T/C is 55.5%.

And the viability, T/C (second compound 0.0316 µM, first compound 0.0316 µM)?
Its viability, T/C is 73.6%.

What about the viability, T/C (second compound 0.0316 µM, first compound 0.1 µM) of the same compound?
Its viability, T/C is 27.9%.

And the viability, T/C (second compound 0.0316 µM, first compound 0.316 µM)?
The viability, T/C was 41.4%.

And the viability, T/C (second compound 0.0316 µM, first compound 1 µM)?
Its viability, T/C is 48.2%.

What about the viability, T/C (second compound 0.1 µM, first compound 0.00316 µM) of the same compound?
The viability, T/C was 36.2%.

What about the viability, T/C (second compound 0.1 µM, first compound 0.01 µM) of the same compound?
Its viability, T/C is 32%.

And the viability, T/C (second compound 0.1 µM, first compound 0.0316 µM)?
Its viability, T/C is 27.9%.

And the viability, T/C (second compound 0.1 µM, first compound 0.1 µM)?
Its viability, T/C is 21.1%.

And the viability, T/C (second compound 0.1 µM, first compound 0.316 µM)?
The viability, T/C was 31.3%.

And the viability, T/C (second compound 0.1 µM, first compound 1 µM)?
The viability, T/C was 38.5%.

And the viability, T/C (second compound 0.316 µM, first compound 0.00316 µM)?
The viability, T/C was 22%.

What about the viability, T/C (second compound 0.316 µM, first compound 0.01 µM) of the same compound?
Its viability, T/C is 16%.

What about the viability, T/C (second compound 0.316 µM, first compound 0.0316 µM) of the same compound?
The viability, T/C was 21.6%.

What about the viability, T/C (second compound 0.316 µM, first compound 0.1 µM) of the same compound?
Its viability, T/C is 21.2%.

And the viability, T/C (second compound 0.316 µM, first compound 0.316 µM)?
The viability, T/C was 34.1%.

What about the viability, T/C (second compound 0.316 µM, first compound 1 µM) of the same compound?
Its viability, T/C is 29.4%.

And the viability, T/C (second compound 1 µM, first compound 0.00316 µM)?
Its viability, T/C is 9.7%.

What about the viability, T/C (second compound 1 µM, first compound 0.01 µM) of the same compound?
The viability, T/C was 9.65%.

What about the viability, T/C (second compound 1 µM, first compound 0.0316 µM) of the same compound?
The viability, T/C was 9.55%.

What about the viability, T/C (second compound 1 µM, first compound 0.1 µM) of the same compound?
Its viability, T/C is 12.1%.

What about the viability, T/C (second compound 1 µM, first compound 0.316 µM) of the same compound?
The viability, T/C was 16.5%.

What about the viability, T/C (second compound 1 µM, first compound 1 µM) of the same compound?
The viability, T/C was 21.9%.

`CC(C)n1nc(-c2ccc3oc(N)nc3c2)c2c(N)ncnc21` was tested. Which viability, T/C (compound 0.000316 µM) did it give?
The viability, T/C was 54.7% and 69.8% and 94.8%.

And the viability, T/C (compound 0.001 µM)?
Its viability, T/C is 120% and 96.8% and 70%.

What about the viability, T/C (compound 0.00316 µM) of the same compound?
The viability, T/C was 68.2% and 77.3% and 63.2%.

What about the viability, T/C (compound 0.01 µM) of the same compound?
The viability, T/C was 52.8% and 72.2% and 93.4%.

What about the viability, T/C (compound 0.0316 µM) of the same compound?
Its viability, T/C is 58.9% and 37.7% and 41.6%.

And the viability, T/C (compound 0.1 µM)?
Its viability, T/C is 21.2% and 24% and 17.7%.

What about the IC50 (curve of compound) of the same compound?
Its IC50 is 33 nM and 20.9 nM and 24.6 nM.
